The nature of this series: Mouse PK Analysis (plasma LC/MS/MS, noncompartmental PK parameters). Format: in vivo. The settings on record: mouse; mice, oral administration, plasma. The arrangement: AUC(0-t): concentration or dose not given beside the values. As for the experimental part: Compounds 30 and 29 were administered to mice orally. After 6 hours or 24 hours, splenocytes cells were harvested. ITK was evaluated by Western blotting. Plasma concentrations were determined by LC/MS/MS. Plasma samples were protein precipitated by addition of 100 μl of acetonitrile containing 50 ng/ml of internal standard. The resulting mixture was vortexed and centrifuged at 4000 RPM for 5 minutes. An aliquot of the resultant supernatant (75 μl) was added to 75 μl of 0.1% formic acid in water to constitute the final sample for injection. Samples were injected on a Shimadzu Exion LC Binary Gradient AD Pump HLPC system connected to a Sciex QTRAP 6500+ mass spectrometer. Five μl of sample was injected onto a Waters Acquity UPLC BEH C18 column 130A (2.1×30 mm, […]) at 40° C. utilizing a flow rate of 700 μl/minute. Mobile Phase A was 0.1% formic acid in water and mobile phase B was 0.1% formic acid in acetonitrile. A linear gradient of 15-95% B over 1.0 minute was used. The mass spectrometer was operated in positive ion electrospray mode with multiple reaction monitoring for maximum sensitivity. Sciex Analyst software (version 1.6.3) was used for LC/MS/MS instrument control and acquisition. Compound concentration was determined against a standard curve of internal standard versus compound peak area ratio. Noncompartmental PK parameters were determined using Phoenix 32 software (version 8.2.0.4383) from Certara. Plasma concentrations from the LC/MS/MS analyses, dose, route of administration, and desired units were utilized for PK parameter calculations. […] FIG. 3C provides the concentration over time of compound 30 following in vivo oral administration in the 6 hour and 24 hour assays.
Cmax, Tmax and AUClast were all calculated using a WinNonLin Phoenix 64 v 8.2.0.4383. Using non-compartmental analysis, Tmax, Cmax and AUClast were determined as follows:
Tmax—Time of maximum observed concentration. Cmax—Maximum observed concentration, occurring at time Tmax, as defined above. AUClast—Area under the curve from the time of dosing to the time of the last measurable (positive) concentration (Tlast).
As usually defined, the AUC(0-t) is the area under the concentration-time curve up to a stated or last time point. What is called Cmax is the maximum level reached in the sampled fluid or tissue. Broadly, the Tmax is the time from dosing to the highest level. As to `CC1(C)CCc2c(-c3cc4ccc(N5CCC6(CCN(CC7CCN(c8ccc(C9CCC(=O)NC9=O)cn8)CC7)CC6)C5=O)cc4[nH]3)n[nH]c2C1` (stereo not drawn) [Compound 24, 3-(6-(4-((2-(2-(6,6-dimethyl-4,5,6,7-tetrahydro-1H-indazol-3-yl)-1H-indol-6-yl)-1-oxo-2,8-diazaspiro[4.5]decan-8-yl)methyl)piperidin-1-yl)pyridin-3-yl)piperidine-2,6-dione], the AUC(0-t) amounted to 1.43 µM·h, the Cmax was determined as 610 nM and the Tmax amounted to 6 h.
In the case of `CC1(C)CCc2c(-c3cc4ccc(C(=O)N5CCC(CN6CCN(c7ccc(C8CCC(=O)NC8=O)nc7)CC6)CC5)cc4[nH]3)n[nH]c2C1` (stereo not drawn) [Compound 35, 3-(5-(4-((1-(2-(6,6-dimethyl-4,5,6,7-tetrahydro-1H-indazol-3-yl)-1H-indole-6-carbonyl)piperidin-4-yl)methyl)piperazin-1-yl)pyridin-2-yl)piperidine-2,6-dione], the area under the curve AUC(0-t) was found to be 12 µM·h, the Cmax is 2000 nM and the Tmax is 2 h.
Turning to `CC1(C)CCc2c(-c3cc4ccc(C(=O)N5CCN(CC6CCN(c7ccc(C8CCC(=O)NC8=O)cn7)CC6)CC5)cc4[nH]3)n[nH]c2C1` (stereo not drawn) [Compound 26, 3-(6-(4-((4-(2-(6,6-dimethyl-4,5,6,7-tetrahydro-1H-indazol-3-yl)-1H-indole-6-carbonyl)piperazin-1-yl)methyl)piperidin-1-yl)pyridin-3-yl)piperidine-2,6-dione], the AUC(0-t) stood at 36.5 µM·h, the Cmax came to 7110 nM and the Tmax came to 6 h.
With `C[C@@H](C(=O)N(C)c1ccc2cc(-c3n[nH]c4c3CCC(C)(C)C4)[nH]c2c1)N1CCN(CC2CCN(c3ccc(N4CCC(=O)NC4=O)cn3)CC2)CC1` [Compound 31, (S)—N-(2-(6,6-dimethyl-4,5,6,7-tetrahydro-1H-indazol-3-yl)-1H-indol-6-yl)-2-(4-((1-(5-(2,4-dioxotetrahydropyrimidin-1(2H)-yl)pyridin-2-yl)piperidin-4-yl)methyl)piperazin-1-yl)-N-methylpropanamide], the area under the curve AUC(0-t) turned out to be 16.5 µM·h, the highest level (Cmax) was 3080 nM and the time of peak concentration (Tmax) was determined as 2 h.
The matching figures for `CC1(C)CCc2c(-c3cc4ccc(C(=O)N5CCC(CN6CCN(c7ccc(C8CCC(=O)NC8=O)cc7)CC6)CC5)cc4[nH]3)n[nH]c2C1` (stereo not drawn) [Compound 37, 3-(4-(4-((1-(2-(6,6-dimethyl-4,5,6,7-tetrahydro-1H-indazol-3-yl)-1H-indole-6-carbonyl)piperidin-4-yl)methyl)piperazin-1-yl)phenyl)piperidine-2,6-dione]: 72 µM·h, 5400 nM and 2 h.
The matching figures for `CN(C(=O)CCC1CCN(c2ccc(C3CCC(=O)NC3=O)cn2)CC1)c1ccc2cc(-c3n[nH]c4c3C[C@@H]3C(F)(F)[C@]3(C)C4)[nH]c2c1` (stereo partly drawn) [Compound 4, N-(2-((4aS,5aR)-5,5-difluoro-5a-methyl-1,4,4a,5,5a,6-hexahydrocyclopropa[f]indazol-3-yl)-1H-indol-6-yl)-3-(1-(5-(2,6-dioxopiperidin-3-yl)pyridin-2-yl)piperidin-4-yl)-N-methylpropanamide]: 7.07 µM·h, 2430 nM and 1 h.
The matching figures for `C[C@@H](C(=O)N(C)c1ccc2cc(-c3n[nH]c4c3CCC(C)(C)C4)[nH]c2c1)N1CCN(CC2CCN(c3ccc(C4CCC(=O)NC4=O)cn3)CC2)CC1` (stereo partly drawn) [Compound 32, (2S)—N-(2-(6,6-dimethyl-4,5,6,7-tetrahydro-1H-indazol-3-yl)-1H-indol-6-yl)-2-(4-((1-(5-(2,6-dioxopiperidin-3-yl)pyridin-2-yl)piperidin-4-yl)methyl)piperazin-1-yl)-N-methylpropanamide]: 22.7 µM·h, 1620 nM and 6 h.
In the case of `C[C@@H](C(=O)N(C)c1ccc2cc(-c3n[nH]c4c3C[C@@H]3C(F)(F)[C@]3(C)C4)[nH]c2c1)N1CCN(CC2CCN(c3ccc(N4CCC(=O)NC4=O)cn3)CC2)CC1` [Compound 29, (S)—N-(2-((4aS,5aR)-5,5-difluoro-5a-methyl-1,4,4a,5,5a,6-hexahydrocyclopropa[f]indazol-3-yl)-1H-indol-6-yl)-2-(4-((1-(5-(2,4-dioxotetrahydropyrimidin-1(2H)-yl)pyridin-2-yl)piperidin-4-yl)methyl)piperazin-1-yl)-N-methylpropanamide], the AUC(0-t) turned out to be 1.98 µM·h, the concentration peaked (Cmax) at 694 nM and the Tmax was 3.3 h.
Regarding `C[C@@]12Cc3[nH]nc(-c4cc5ccc(N6CCC7(CCN(CC8CCN(c9ccc(C%10CCC(=O)NC%10=O)cn9)CC8)CC7)C6=O)cc5[nH]4)c3C[C@@H]1C2(F)F` (stereo partly drawn) [Compound 28, 3-(6-(4-((2-(2-((4aS,5aR)-5,5-difluoro-5a-methyl-1,4,4a,5,5a,6-hexahydrocyclopropa[f]indazol-3-yl)-1H-indol-6-yl)-1-oxo-2,8-diazaspiro[4.5]decan-8-yl)methyl)piperidin-1-yl)pyridin-3-yl)piperidine-2,6-dione], the area under the curve AUC(0-t) amounted to 1.56 µM·h, the Cmax was determined as 379 nM and the Tmax came to 6 h.
In the same order, the values of `CC1(C)CCc2c(-c3cc4ccc(C(=O)N5CCN(CC6CCN(c7ccc(C8CCC(=O)NC8=O)cc7)CC6)CC5)cc4[nH]3)n[nH]c2C1` (stereo not drawn) [Compound 38, 3-(4-(4-((4-(2-(6,6-dimethyl-4,5,6,7-tetrahydro-1H-indazol-3-yl)-1H-indole-6-carbonyl)piperazin-1-yl)methyl)piperidin-1-yl)phenyl)piperidine-2,6-dione] are 150 µM·h, 11000 nM and 3.3 h.
In the same order, the values of `CC1(C)CCc2c(-c3cc4ccc(C(=O)N5CCC(CN6CCC(c7ccc(C8CCC(=O)NC8=O)cc7)CC6)CC5)cc4[nH]3)n[nH]c2C1` (stereo not drawn) [Compound 39, 3-(4-(1-((1-(2-(6,6-dimethyl-4,5,6,7-tetrahydro-1H-indazol-3-yl)-1H-indole-6-carbonyl)piperidin-4-yl)methyl)piperidin-4-yl)phenyl)piperidine-2,6-dione] are 3.9 µM·h, 300 nM and 6 h.

The record behind these values is patent publication US20230158151A1 (NURIX THERAPEUTICS, INC., priority 2021, published 2023).
